# PMC5823845 (Bioorganic & Medicinal Chemistry, 2018)
# pIC50: −log10 of the molar value. “Also recorded” adds a separate entry of the source.
# Assays:
# [1] = test system: panel of 120 other receptors, channels and enzymes; assay: CEREP selectivity screen, binding and enzyme assays; conditions: 10 μM
# Procedure: (§1) The CEREP selectivity screen was performed on the following targets:
# (§2) A1, A2A, A3, α1, α2, β1, β2, AT1, AT2, BZD central, BZD periph, BB, B2, CGRP, CB1, CCK1, CCK2, D1, D2S, D3, D4.4, D5, ETA, ETB, GABA, GAL1, GAL2, PDGF, CXCR2, CCR1, TNF- α, H1, H2, MC4, MT1, M1, M2, M3, M4, M5, NK1, NK2, NK3,Y1, Y2, NTS1(NT1), δ2, κ, µ, NOP(ORL1) , PAC1(PACAP), PPARγ, PCP, EP2, EP4, IP(PGI2,), P2X, P2Y,5-HT1A, 5-HT1B, 5-HT2A, 5-HT2B, 5-HT2C, 5-HT3, 5-HT5A, 5-HT6, 5-HT7, σ, sst, GR, ER, VPAC1(VIP1), V1a, Ca^2+ channel (L), KV channel, KV channel, SKCa channel, Na^+ channel, Cl^- channel, norepinephrine transporter. dopamine transporter, 5-HT transporter.
# sPLA2, COX1, COX2, 5-lipoxygenase, 12-lipoxygenase, inducible NOS, PDE2A1, PDE3A, PDE4D2, PDE5, PDE6, ACE, ACE-2, BACE-2, ECE-1, elastase, caspase-3, caspase-8, cathepsin D, cathepsin L, neutral endopeptidase, MMP-1, MMP-3, MMP-9, tryptase, TACE, phosphatase 1B, phosphatase CDC25A, Scr kinase, acetylcholinesterase, MAO-A, MAO-B, CENP-E, Eg5, HDAC3, HDAC4, HMG-CoA reductase, HDAC11, surtuin-1, surtuin-2.
# 5HT2B site = biological target: T1, 5HT2B site (Homo sapiens, UniProt P41595); assay: CEREP selectivity screen, binding assay; conditions: read-out: highest inhibition, 5HT2B site
# T1 construct: Cerep (CRO)
# T1 sequence (P41595 whole entry): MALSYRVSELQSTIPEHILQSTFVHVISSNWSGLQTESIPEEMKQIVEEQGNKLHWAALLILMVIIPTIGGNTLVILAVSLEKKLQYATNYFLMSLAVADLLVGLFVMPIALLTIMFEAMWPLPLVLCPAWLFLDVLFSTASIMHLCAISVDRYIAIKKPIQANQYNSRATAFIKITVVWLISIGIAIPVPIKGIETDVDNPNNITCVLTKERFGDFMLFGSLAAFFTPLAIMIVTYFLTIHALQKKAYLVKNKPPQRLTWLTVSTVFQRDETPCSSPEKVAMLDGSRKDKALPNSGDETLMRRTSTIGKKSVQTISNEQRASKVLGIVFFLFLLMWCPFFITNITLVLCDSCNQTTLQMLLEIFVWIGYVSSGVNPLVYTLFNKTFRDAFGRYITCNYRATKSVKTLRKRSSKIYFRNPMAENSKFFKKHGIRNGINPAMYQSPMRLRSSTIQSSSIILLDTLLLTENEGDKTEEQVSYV
# Procedure: as §1, §2
# hERG channel = biological target: T2, hERG channel (Homo sapiens, UniProt Q12809); assay: hERG binding assay, displacement of [3H]-astemizole; conditions: up to 10 μM
# T2 construct: host or cells: HEK293 cells expressing HERG (per the cited method)
# T2 sequence (Q12809 whole entry): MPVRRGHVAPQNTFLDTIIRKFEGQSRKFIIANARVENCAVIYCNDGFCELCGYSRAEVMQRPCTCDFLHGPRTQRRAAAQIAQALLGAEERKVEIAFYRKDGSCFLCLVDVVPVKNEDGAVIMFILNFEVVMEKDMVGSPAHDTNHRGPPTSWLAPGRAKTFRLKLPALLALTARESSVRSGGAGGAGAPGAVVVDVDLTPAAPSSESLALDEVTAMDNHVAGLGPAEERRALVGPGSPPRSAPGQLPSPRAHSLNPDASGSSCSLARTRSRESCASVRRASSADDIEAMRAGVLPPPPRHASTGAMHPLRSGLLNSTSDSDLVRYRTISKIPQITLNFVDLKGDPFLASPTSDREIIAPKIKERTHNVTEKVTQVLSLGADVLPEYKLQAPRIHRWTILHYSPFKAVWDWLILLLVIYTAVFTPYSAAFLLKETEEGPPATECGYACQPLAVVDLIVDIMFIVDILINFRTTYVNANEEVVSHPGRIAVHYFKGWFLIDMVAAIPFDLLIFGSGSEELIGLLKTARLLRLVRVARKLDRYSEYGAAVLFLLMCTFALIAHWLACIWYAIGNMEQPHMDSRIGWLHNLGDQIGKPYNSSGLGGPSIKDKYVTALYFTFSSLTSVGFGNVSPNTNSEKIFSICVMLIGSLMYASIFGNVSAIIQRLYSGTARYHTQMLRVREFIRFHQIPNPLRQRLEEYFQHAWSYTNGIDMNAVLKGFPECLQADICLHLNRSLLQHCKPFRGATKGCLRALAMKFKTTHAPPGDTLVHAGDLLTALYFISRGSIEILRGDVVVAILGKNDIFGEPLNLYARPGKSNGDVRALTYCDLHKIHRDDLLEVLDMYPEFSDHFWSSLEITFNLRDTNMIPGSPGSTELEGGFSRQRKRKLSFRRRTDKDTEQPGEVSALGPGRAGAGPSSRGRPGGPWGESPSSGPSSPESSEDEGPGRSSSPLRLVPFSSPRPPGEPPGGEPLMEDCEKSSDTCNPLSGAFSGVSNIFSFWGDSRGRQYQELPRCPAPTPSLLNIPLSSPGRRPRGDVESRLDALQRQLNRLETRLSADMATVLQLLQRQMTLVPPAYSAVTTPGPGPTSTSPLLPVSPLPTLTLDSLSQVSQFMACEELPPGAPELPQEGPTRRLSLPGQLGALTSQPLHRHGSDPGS
# Procedure: Interaction with the hERG channel was assessed by displacement of the radioligand [^3H]-astemizole as described by Chiu et al.^3
# human RXR α = biological target: T3, human RXR α (Homo sapiens, UniProt P19793); assay: Retinoid X Receptor radioligand binding assay, [3H] 9-cis-retinoic acid; conditions: human recombinant receptor
# T3 construct: Panlabs Eurofins Pharma Discovery Services (CRO)
# T3 sequence (P19793 1-462): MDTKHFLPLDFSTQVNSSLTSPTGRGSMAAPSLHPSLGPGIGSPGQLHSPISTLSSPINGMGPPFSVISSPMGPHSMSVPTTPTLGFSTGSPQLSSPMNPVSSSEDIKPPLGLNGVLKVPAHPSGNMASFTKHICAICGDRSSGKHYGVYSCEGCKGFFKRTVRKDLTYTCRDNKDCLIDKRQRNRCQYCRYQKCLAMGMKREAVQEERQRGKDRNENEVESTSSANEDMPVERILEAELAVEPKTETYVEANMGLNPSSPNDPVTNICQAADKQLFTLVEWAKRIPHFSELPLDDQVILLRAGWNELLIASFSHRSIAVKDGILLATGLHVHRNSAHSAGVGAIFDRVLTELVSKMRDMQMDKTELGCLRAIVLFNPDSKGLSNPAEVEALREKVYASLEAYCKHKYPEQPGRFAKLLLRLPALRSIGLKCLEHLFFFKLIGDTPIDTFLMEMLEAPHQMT
# Procedure: (§3) [22] The Retinoid X Receptor RXRα and RXRβ radioligand binding assays using [^3H] 9-cis-retinoic acid and the respective human recombinant receptors, were carried out by the CRO Panlabs Eurofins Pharma Discovery Services UK Limited, Gemini Crescent, Dundee Technology Park, Dundee, DD2 1SW.
# human RXR β = biological target: T4, human RXR β (Homo sapiens, UniProt P28702); assay: as above; conditions: human recombinant receptor
# T4 construct: Panlabs Eurofins Pharma Discovery Services (CRO)
# T4 sequence (P28702 1-533): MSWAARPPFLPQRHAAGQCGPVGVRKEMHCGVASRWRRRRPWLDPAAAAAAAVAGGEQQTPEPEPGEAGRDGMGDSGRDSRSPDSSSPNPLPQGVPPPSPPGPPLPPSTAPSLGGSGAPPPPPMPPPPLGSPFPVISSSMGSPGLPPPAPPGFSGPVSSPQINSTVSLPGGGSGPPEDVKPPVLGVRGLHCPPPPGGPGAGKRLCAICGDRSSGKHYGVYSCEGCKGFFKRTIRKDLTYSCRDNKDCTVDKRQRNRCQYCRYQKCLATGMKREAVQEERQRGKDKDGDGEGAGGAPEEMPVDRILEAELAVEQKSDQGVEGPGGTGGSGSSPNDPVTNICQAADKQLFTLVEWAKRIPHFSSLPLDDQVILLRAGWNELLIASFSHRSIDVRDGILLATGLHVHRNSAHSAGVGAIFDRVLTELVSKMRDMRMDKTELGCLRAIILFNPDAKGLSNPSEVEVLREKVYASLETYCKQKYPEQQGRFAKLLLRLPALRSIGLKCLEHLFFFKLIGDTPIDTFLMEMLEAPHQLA
# Procedure: as §3
# [2] = test system: Salmonella Typhimurium (TA98, TA100, and TA1535); assay: Ames test; type: cell-based; conditions: three bacterial strains; presence and absence of S9
# Source text: For the first two assays, photometry is used for detection.
# [3] = C57 mice, n = 3
# Procedure: (§4) Blood was centrifuged to yield plasma for quantification of parent compound using UPLC-MS/MS. […] Terminal blood samples (approximately 300 μL) were subsequently taken by cardiac puncture under CO2 terminal anaesthesia. Once collected, blood samples were transferred to tubes containing 28 μL of citrate as anti-coagulant and held on ice, for <30 minutes, before centrifugation to generate plasma. Plasma samples aliquots (50 μL) were treated with four volumes of acetonitrile, containing diclofenac as analytical internal standard. Precipitated proteins were removed by centrifugation and the supernatant was analysed by UPLC-MS/MS. Pharmacokinetic parameters were determined by non-compartmental analysis using the software package PK Solutions 2.0 from Summit Research Services.
# in vivo [4] = conditions: C57, mouse, iv, 1 mg/kg
# Procedure: as §4
# in vivo [5] = conditions: male, Beagle, dog, iv, 0.5 mg/kg
# Procedure: intravenous (bolus) injection at a dose level of 0.2 mg/kg. […] Intravenous doses were administered by bolus injection into a cephalic vein at a dose volume of 1 mL/kg. Oral doses were administered by gastric intubation at a dose volume of 5 mL/kg. […] Pharmacokinetic parameters were calculated using the computer program Phoenix WinNonlin version 6.3 (Pharsight Corporation, USA).
# [6] = Log D pH 7.4, octanol/buffer shake flask method
# Procedure: Briefly, octanol (pre-saturated with buffer) is added to the test compound and sonicated. Buffer at pH 7.4 (presaturated with octanol) is then added to the octanol. […] The system is mixed to allow distribution of the compound between the two phases.
# Log D = Log (Coct / Caq ). Where: Coct = Concentration in octanol sample (corrected for dilution) and Caq = Concentration in aqueous sample (corrected for dilution)
# [7] = Stability and intrinsic clearance in cryopreserved hepatocytes; conditions: mouse
# Procedure: (§5) Reactions were terminated by addition of 100 μL of acetonitrile containing carbamazepine as the analytical internal standard. Samples were centrifuged and the supernatant fractions analysed by LC-MS/MS. The instrument responses (peak heights) were referenced to the zero time-point samples (as 100%) in order to determine the percentage of compound remaining. Ln plots of the % remaining, for each compound, were used to determine the half-life for the hepatocyte incubations.
# [8] = as above; conditions: rat
# Procedure: as §5
# [9] = as above; conditions: dog
# Procedure: as §5
smiles,measurement,setting,value
"CCOc1c(Cl)cc(C(=O)Nc2ccc(C(=O)O)c(C)c2)cc1OC(C)C [Compound 56, 4-(3-Chloro-4-ethoxy-5-isopropoxybenzamido)-2-methylbenzoic acid]","interactions with panel of 120 receptors, channels and enzymes",[1],no significant interactions
same,"inhibition (or stimulation), all panel targets",[1]; two independent experiments,≤ 25%
same,inhibition at 10 µM,5HT2B site,25%
same,binding to hERG,hERG channel,did not show any significant binding; also recorded: no inhibition
same,pIC50,human RXR α,< 5.00
same,pIC50,human RXR β,< 5.00
same,Ames test,[2],negative
same,po F,"[3]; 1 mg/kg iv and po, 1 mg/kg",84%
same,iv t1/2,[3]; 1 mg/kg iv,1.9 h
same,po Cmax,[3]; 1 mg/kg po,2007 ng/mL
same,po Tmax,[3]; 1 mg/kg po,0.25 h
same,Vd,in vivo [4],0.3 L/kg
same,clearance,in vivo [4],4.7 mL/min/kg
same,Vd,in vivo [5],0.66 L/kg
same,clearance,in vivo [5],2.3 mL/min/kg
same,logD,[6],1.8
same,half-life at 1 μM,[7],3.73 h
same,half-life at 30 μM,[7],> 5 h
same,hepatocyte CLint at 1 μM,[7],12 µL/min/1e6 cells
same,hepatocyte CLint at 30 μM,[7],< 9 µL/min/1e6 cells
same,half-life at 1 μM,[8],5.95 h
same,half-life at 30 μM,[8],> 7.5 h
same,hepatocyte CLint at 1 μM,[8],4 µL/min/1e6 cells
same,hepatocyte CLint at 30 μM,[8],< 3 µL/min/1e6 cells
same,half-life at 1 μM,[9],> 7.5 h
same,half-life at 30 μM,[9],> 7.5 h
same,hepatocyte CLint at 1 μM,[9],< 3 µL/min/1e6 cells
same,hepatocyte CLint at 30 μM,[9],< 3 µL/min/1e6 cells
